Data reported in patent US9125930B2, “EGFR aptamer inhibitor for use in therapy and diagnosis” (CONSIGLIO NAZIONALE DELLE RICERCHE, priority 2010, dated 2015).

How the values were obtained:
[1] = tested on: H460 cells; experiment: Binding on H460 cells; design: species or system human; details: low level of EGFR; 100 nM
Method: (§1) Binding experiments were performed with 5′-[^32P]-labeled RNA. For labeling 2′-F-Py RNAs were 5′-end dephosphorylated using bacterial alcaline phosphatase (Invitrogen, Carlsbad, Calif.) before [^32P]-5′-end-labeled using T4 kinase (Invitrogen) and γ-[^32P]-ATP (6×10^3 Ci/mmol, GE Healthcare Bio-Sciences, Uppsala, Sweden) according to the supplier's instructions.
(§2) For binding experiments on cells, 3.5×10^4 cells were plated in 24-well plates in triplicate and were incubated with CL4 42-81 aptamer the scrambled sequence used as a negative control at 100 nM concentration in 200 μl of DMEM serum free for 20 min at RT in the presence of 100 μg/ml polyinosine as a nonspecific competitor (Sigma, St. Louis, Mo.). After five washings with 500 μl DMEM, bound sequences were recovered in 300 μl of SDS 1%, and the amount of radioactivity recovered was counted.

[2] = tested on: Calu1 cells; experiment: Binding on Calu1 cells; design: species or system human; details: EGFR-positive; 100 nM
Method: as §1, §2

[3] = tested on: A549 cells; experiment: Cell viability assay, A549 cells; assay type: cell-based, human
Method: Cell viability was assessed with CellTiter 96® AQueous One Solution Cell Proliferation Assay (Promega, Madison, Wis.) according to according to the supplier's instructions. […] The optical density (OD) was measured using a Multilabel Counter (Bio-Rad) at a wavelength of 490 nm and cell viability was calculated by the following formula: Cell viability (%)=(OD treated cells/OD control cells)×100%. FACS Analysis

[4] = tested on: breast SKBR3; experiment: Binding on SKBR3 cells; design: species or system human; details: high level of EGFR; 100 nM
Method: as §1, §2

[5] = tested on: Calu1; experiment: Cell viability assay, Calu1 cells; assay type: cell-based, human; details: 200 nM-final concentration; not shown
Method: (§3) Cell viability was assessed with CellTiter 96® AQueous One Solution Cell Proliferation Assay (Promega, Madison, Wis.) according to according to the supplier's instructions. Cells (4×10^3 cells/well) were plated in 96-well plates in triplicate. and were treated for 24 hs with heat denatured CL4 42-81 or the scrambled aptamer at 3 μM concentration. RNA concentrations were determined to ensure the continuous presence of a concentration of at least 200 nM, which takes into account the 6 hs-half life of the aptamer in 10% serum. The optical density (OD) was measured using a Multilabel Counter (Bio-Rad) at a wavelength of 490 nm and cell viability was calculated by the following formula: Cell viability (%)=(OD treated cells/OD control cells)×100%. FACS Analysis

[6] = tested on: A549 cells; experiment: [3H]-thymidine incorporation assay; assay type: cell-based, human; details: A549, 200 nM final concentration, 24 and 48 h
Method: A549 cells were treated for 24 h or 48 h with CL4 42-81 or CL4 scrambled. During the final 6 h, cells were pulsed with 1 μCi/ml [^3H]-thymidine (45 Ci/mmol) (Amersham-Pharmacia Biosciences) added in complete growth medium and incubated at 37° C. At the end of each pulse, cells were harvested and [^3H]-thymidine incorporation was analyzed by a Beckman LS 1701 Liquid Scintillation Counter.

[7] = tested on: caspase-8; experiment: Caspase-8 in A549 xenograft tumor lysates; assay type: in vivo, mouse; details: pooled tumor lysates
Method: FIG. 8. (A) A549 cells (2,000 cells/well in 24-well plates) were treated for 24 h or 48 h with CL4 42-81 or CL4 scrambled (200 nM-final concentration) and proliferation was determined by [^3H]-thymidine incorporation. Vertical bars indicate the standard deviation values. […] Day 0 marks the first day of injection. Data are shown as means±s.e.m. (n=8 tumors). (C) Three tumors per group selected randomly were excised, lysed, and the pooled lysates were immunoblotted with anti-pEGFR, anti-EGFR, anti-caspase-3, anti-cleaved caspase-8 and anti-αtubulin antibodies, as indicated. Molecular weights of indicated proteins are reported. (D) Cell lysates as in (C) were analyzed by caspase-3 fluorimetric assays.
Athymic CD-1 nude mice (nu/nu) were housed in a highly controlled microbiological environment, thus to guarantee specific pathogen free conditions. Mice were injected subcutaneously with 3×10^6 (in 100 μl) in vitro propagated A549. Sixteen non-necrotic tumors of about 0.5 cm in diameter were randomly divided into two groups of eight mice as follows: group 1, CL4 scrambled-treated; group 2, CL4 42-81-treated. Aptamers (200 pmols/injection) were injected intra-tumorally in 100-1 μl volumes three times a week for 16 days. Tumors were measured every 2 days.

[8] = Half life of the aptamer in serum; assay type: in vitro ADME; details: in 10% serum
[9] = tested on: NIH3T3 cells; experiment: Binding on parental NIH3T3 cells; design: species or system mouse; details: [32P]-labeled aptamer at 100 nM; relative to scrambled aptamer
Method: Human NSCLC A549, epidermoid carcinoma A431, glioma U87MG and T98G, breast SKBr3, MCF7 and T47D and mouse fibroblast NIH3T3 (all from American Type Culture Collection, Manassas, Va.) cells were grown in Dulbecco's modified Eagle medium (DMEM) supplemented with 10% fetal bovine serum (FBS) and 2 mM L-glutamine (Invitrogen, Carlsbad, Calif.). NIH3T3 cells stably transfected with human EGFR (NIH/EGFR) were grown in DMEM with 10% FBS and 2 mM L-glutamine supplemented with 50 μg/ml Gentamycin.
as §1, §2

[10] = tested on: A549 cells transfected with a specific EGFR shRNA; experiment: Binding on A549 cells after EGFR gene silencing; design: species or system human; details: [32P]-labeled aptamer at 100 nM, relative to scrambled aptamer
Method: EGFR gene silencing in NSCLC A549 cells was established by transfection of high performance short hairpin RNA (shRNA) specifically targeting EGFR (from Expression Arrest™ Human shRNA Collection, Open Biosystems, Huntsville, Ala.). Cells (3.5×10^5 cells per 6 cm plate) were grown and overlaid with the transfection mixtures containing the shRNA (6 μg) against EGFR (referred as shRNAEGFR) and Lipofectamine 2000 (Invitrogen, Carlsbad, Calif.) in Opti-MEM I reduced serum medium (Invitrogen). After 5 hours incubation, complete culture medium was added to the cells and incubation was prolonged up to 72 hs. […] For binding assays transfected cells were plated in 24 well plates after 24 hs from transfection.
Binding experiments were performed with 5′-[^32P]-labeled RNA. […]
as §2

[11] = tested on: A431 cells; experiment: Cell viability assay, A431 cells; assay type: cell-based, human
Method: as §3

For “CL4 42-81: 2′-fluoropyrimidine nuclease-resistant RNA aptamer of 39 nt: 5′ GCCUUAGUAACGUGCUUUGAUGUCGAUUCGACAGGAGGC 3′ (SEQ ID No. 1) (2'-fluoro at CU, RNA at AG, backbone not given here)”, which “binding on H460 cells” value [1] is on record?
Its value is “does not bind”.

And the “binding on Calu1 cells” value [2]?
Its value is “binds”.

And the “sensitivity of A549 cell viability” value ([3]; 200 nM-final concentration, 24 h)?
The value was “highly sensitive”.

And the cell viability ([3]; A549, 24 hs, 200 nM final concentration, relative to untreated cells set to 100%)?
The cell viability was “about 60%”.

And the “effectiveness on A549 cell viability in combination with gefitinib” value ([3]; CL4 42-81 100 and 200 nM with 1 μM gefitinib, 24 h)?
Its value is “not improved”.

What about the “binding on SKBR3 cells” value [4] of the same substance?
Its value is “binds”.

And the “sensitivity of Calu1 cell viability” value [5]?
Its value is “same effect”.

And the “[3H]-thymidine incorporation” value [6]?
The value was “completely blocks”.

What about the “caspase-8 activation in xenograft tumors” value [7] of the same substance?
Its value is “activates”.

And the “half life of the aptamer” value [8]?
Its value is 6 h.

And the “binding on parental NIH3T3 cells” value [9]?
Its value is “does not binding”.

What about the “ability to bind to A549 cells upon decreased EGFR expression” value [10] of the same substance?
Its value is “significantly reduced”.

And the “sensitivity of A431 cell viability” value ([11]; 200 nM-final concentration, not shown)?
Its value is “same effect”.

And the cell viability ([11]; A431, 24 hs, 200 nM final concentration, relative to untreated cells set to 100%)?
The cell viability was “about 60%”.
